Measurements: patent US4579947A, “Substituted phenylalkylpiperazinylpropyl (ureas or thioureas) useful for treatment of immunological, inflammatory and allergic disorder” (Boehringer Ingelheim Pharmaceuticals, Inc., priority 1984, dated 1986)
Counter-ions that a name gives are not always drawn.

How the values were obtained:
[1] = test system: isolated guinea pig ileum; test: Antagonism of histamine-induced contraction of isolated guinea pig ileum; type: cell-based; details: Cavia porcellus; Table C; histamine final concentration 0.2 μg/ml; read-out: Inhibition IC50 (histamine-induced contraction of isolated guinea pig ileum)
Protocol: The antagonism of the effects of histamine on the contraction of isolated guinea pig ileum by the compounds of formula I can be determined by the procedure of G. Possanza, A. Bauen, and P. Stewart, Int. Arch. Allergy Appl. Immunol., 49, 289 (1975). The degree of inhibition is determined as the difference between the contraction caused by histamine (final concentration 0.2 μg/ml) alone and that seen in the presence of both histamine and the test compound. The inhibitory activity of the test compound is expressed as that concentration of the compound which causes a 50% reduction of the contractile response (IC50).

[2] = test system: rat peritoneal mast cells; test: Inhibition of rat peritoneal mast cell histamine release; type: cell-based; details: Table B, in vitro, sheep anti-rat IgE or ovalbumin, 60 minutes at 37° C., Int. = interference with test procedure; for IC50: Mast cell, 1 h, read-out: Inhibition IC50 (histamine release from rat peritoneal mast cells)
Protocol: Harvest of Peritoneal Mast Cells: After the rats are sacrificed with ether, 20 ml of Minimum Essential Medium (MEM) containing 20 units/ml heparin is injected into the peritoneum. The abdomen is massaged for one minute and the lavage fluid collected. The peritoneal cells are centrifuged at 1800 rpm for 8 minutes in cold. After two washes with Tris A buffer, the cells are resuspended in Tris ACM buffer at 2-33 10^6 cells/ml. 2. Reaction Mixture: The reaction is carried out in 12×75 mm plastic tubes at a total volume of 1.25 ml. The reaction mixture includes 0.5 ml (10-1000 μg) sheep anti-rat IgE or ovalbumin, 0.2 ml of the test compound in water at concentrations ranging from 10-1000 μM, 0.5 ml phosphatidylserine solution (20-60 μg to each tube), and 0.5 ml of cell suspension. The reaction mixture is incubated in a 37° C. shaking water bath for 60 minutes. Upon completion of the reaction, the tubes are centrifuged and the supernatants collected. The protein is removed from the supernatants by precipitation with 0.2 ml of 8% perchloric acid. 3. Histamine Assay: Histamine release is measured by the automated fluorometric method of Siraganian, supra. The concentration which causes a 50% inhibition (IC50) of histamine release is computed as in Part A.

[3] = test system: human leukocytes (basophils); test: Inhibition of human leukocyte (basophil) histamine release in vitro (rabbit anti-human IgE); type: cell-based; details: Table A, 60 minutes at 37° C., Int. = interference with test procedure; for IC50: Leukocyte, 1 h, read-out: Inhibition IC50 (histamine release from human leukocytes (basophils))
Protocol: Separation of Leukocytes: A modification of the method of L. Lichtenstein and A. Osler, J.Exp.Med. 120, 507 (1964) was used. Heparinized human blood (80-100 ml) is mixed with 20 ml of saline (0.2%) containing 0.6 gm of dextrose and 1.2 gm dextran in propylene centrifuge tubes. The mixture is kept at ambient temperature for 60-90 minutes to allow the separation of erythrocytes from the platelet-leukocyte-rich supernate. The supernate is removed and centrifuged for 8 minutes at 110×g in cold. The leukocyte pellet is washed 2× with Tris buffer and finally suspended in 150-180 ml Tris-ACM buffer at 1-2×10^6 cells/ml. 2. Reaction Mixture: The reaction is carried out in 12×75 mm plastic tubes at a total volume of 1.25 ml. The reaction medium includes 0.05 ml rabbit anti-human IgE (the antigen), 0.2 ml of the test compound in water at concentrations ranging from 10-1000 μM, and 1.0 ml of the leukocyte suspension. The reaction mixture is incubated in a 37° C. shaking water bath for 60 minutes. Upon completion of the reaction, the tubes are centrifuged and the supernatants collected. The protein is removed from the supernatants by precipitation with 0.2 ml of 8% perchloric acid. 3. Histamine Assay: Histamine release is measured by the automated fluorometric method of W. Siraganian and W. Hook in Chapter 102 of the Manual of Clinical Immunology, 2nd Edition, Edited by R. Rose and H. Friedman, Published by the American Society for Microbiology, Washington, D.C. 1980. Percent inhibition is calculated as follows: [formula] The concentration which causes a 50 percent inhibition (IC50) of histamine release is interpolated from a plot of percent inhibition versus logarithm of drug concentration.

[4] = test system: CNS; test: Standard mouse neuropharmacological profile; type: in vivo
Source text: With the exception of the compounds wherein R4 is a lower alkyl group from 7 to 12 carbon atoms, the compounds of formula I inhibit in vitro the histamine-induced contraction of isolated guinea pig ileum and are useful in warm-blooded animals for antagonizing the action of histamine at the histamine (H1) receptor. Accordingly, the compounds of formula I can be employed as antihistamine agents for the treatment of allergic disorders, for example allergic rhinitis, vasomotor rhinitis, allergic conjunctivitis, hay fever, urticaria, and food allergies. Certain compounds of formula I lack the CNS side effects, such as sedation, normally associated with antihistamine therapy.

IC50 [1] [µM] | IC50 [2] [µM] | IC50 [3] [µM] | CNS effects [4] | Inhibition IC50 (histamine release from human leukocytes (basophils)) [3] | Inhibition IC50 (histamine release from rat peritoneal mast cells) [2] | SMILES
0.015 | 108 | 50 | – | – | – | O=C(NCCCN1CCN(Cc2ccc(Cl)cc2)CC1)NC1CCCCC1 [Example 1, 1-{3-[4-(4-Chlorobenzyl)piperazin-1-yl]propyl}-3-cyclohexylurea dihydrochloride]
0.05 | 110 | 8 | – | – | – | CCCCCCNC(=O)NCCCN1CCN(Cc2ccc(Cl)cc2)CC1 [Example 4, 1-{3-[4-(4-Chlorobenzyl)piperazin-1-yl]propyl}-3-n-hexylurea dihydrochloride]
0.75 | 210 | 16 | – | – | – | CCCCCCCCNC(=O)NCCCN1CCN(Cc2ccc(Cl)cc2)CC1 [Example 5, 1{3-[4-(4-Chlorobenzyl)piperazin-1-yl]propyl}-3-n-octylurea diihydrochloride]
0.05 | > 1000 | 78 | – | – | – | O=C(NCCCN1CCN(Cc2ccc(Cl)cc2)CC1)Nc1ccccc1 [Example 9, 1-{3-[4-(4-Chlorobenzyl)piperazin-1-yl]propyl}-3-phenylurea]
0.11 | – | 190 | not to exert significant CNS effects | – | – | CCOC(=O)c1ccc(NC(=O)NCCCN2CCN(Cc3ccc(Cl)cc3)CC2)cc1.Cl [Example 13, 1-{3-[4-(4-Chlorobenzyl)piperazin-1-yl]propyl}-3-(4-ethoxycarbonylphenyl)urea hydrochloride]
0.21 | – | > 1000 | not to exert significant CNS effects | – | – | Cl.O=C(NCCCN1CCN(Cc2ccc(Cl)cc2)CC1)Nc1ccc(C(=O)O)cc1 [Example 14, 1-{3-[4-(4-Chlorobenzyl)piperazin-1-yl]propyl}-3-(4-carboxyphenyl)urea hydrochloride]
0.08 | – | – | – | Int. | – | CCCCCCNC(=S)NCCCN1CCN(Cc2ccc(Cl)cc2)CC1 [Example 21, 1-{3-[4-(4-Chlorobenzyl)piperazin-1-yl]propyl}-3-n-hexylthiourea dihydrochloride hemihydrate]
0.23 | – | 112 | – | – | – | O=C(NCCCN1CCN(Cc2ccc(Cl)cc2)CC1)NCc1ccccc1 [Example 22, 1-{3-[4-(4-Chlorobenzyl)piperazin-1-yl]propyl}-3-benzylurea dihydrochloride]
0.02 | – | 16 | – | – | – | CCCCCCNC(=O)NCCCN1CCN(CCc2ccc(Cl)cc2)CC1 [Example 23, 1-{3-[4-(4-Chlorophenethyl)piperazin-1-yl]propyl}-3-n-hexylurea dihydrochloride]
0.008 | 150 | 81 | – | – | – | N#Cc1ccc(NC(=O)NCCCN2CCN(Cc3ccc(Cl)cc3)CC2)cc1 [Example 24, 1-{3-[4-(4-Chlorobenzyl)piperazin-1-yl]propyl}-3-(4-cyanophenyl)urea dihydrochloride monohydrate]
0.13 | – | 10 | – | – | Int. | CCCCCCNC(=O)NCCCN1CCN(CCCc2ccc(Cl)cc2)CC1.Cl.Cl [Example 25, 1-{3-[4-[3-(4-Chlorophenyl)propyl]piperazin-1-yl]propyl}-3-n-hexylurea dihydrochloride]
0.09 | – | – | – | Int. | – | CCCCCCNC(=O)NCCCN1CCN(Cc2ccc(Cl)c(C(F)(F)F)c2)CC1.Cl.Cl [Example 26, 1-{3-[4-(3-Trifluoromethyl-4-chlorobenzyl)piperazin-1-yl]propyl}-3-n-hexylurea dihydrochloride]
0.11 | – | 20 | – | – | – | N#Cc1ccc(NC(=O)NCCCN2CCN(CCCc3ccc(Cl)cc3)CC2)cc1 [Example 27, 1-{3-{4-[3-(4-Chlorophenyl)propyl]piperazin-1-yl}propyl}3-(4-cyanophenyl)urea dihydrocyloride monohydrate]
0.17 | – | 120 | – | – | – | C=CCNC(=O)NCCCN1CCN(Cc2ccc(Cl)cc2)CC1 [Example 28, 1-{3-[4-(4-Chlorobenzyl)piperazin-1-yl]propyl}-3-allylurea dihydrochloride]
0.02 | – | 115 | – | – | – | CC(=O)c1ccc(NC(=O)NCCCN2CCN(Cc3ccc(Cl)cc3)CC2)cc1 [Example 29, 1-{3-[4-(4-Chlorobenzyl)piperazin-1-yl]propyl}-3-(4-acetylphenyl)urea dihydrochloride dihydrate]
